Assay results taken from patent US5407683A (Research Corporation Technologies, Inc., priority 1992, dated 1995).
≈ marks a conversion by molar mass, not a printed value.

Assays:
[1] = thermal stability of taxol; assay type: physicochemical; conditions: 130° C.
Experimental: The process steps can in many cases be performed at about room temperature. […] The process steps should be performed to avoid melting or decomposition of the matrix compound, i.e., the process should be performed at temperatures less than about the melting point or decomposition point of the matrix compound, generally about 140° C. or less. […] Thus preferred temperatures for performing the process steps are about 60° C. to about 130° C.

[2] = precipitation of taxol from oil solution under vacuum; assay type: physicochemical; conditions: bath temperatures less than 50° to 60° C.
[3] = solubilization of taxol in squalane oil; assay type: physicochemical; conditions: 4.0 mg taxol in 0.400 ml squalane oil, methanol removed
Experimental: The methanol was then removed with heating and nitrogen blanket at about 60° C. for 10 minutes.

leukemia = conditions: cited from earlier work
colon = conditions: cited from earlier work
breast = conditions: cited from earlier work
melanoma = conditions: cited from earlier work
sarcomas = conditions: cited from earlier work
Lewis lung tumor = conditions: cited from earlier work
microtubules = conditions: in vitro; cited from earlier work
[4] = cited from earlier work
[5] = nonemulsified form; cited from earlier work

CC(=O)O[C@H]1C(=O)[C@@]2(C)[C@H]([C@H](OC(=O)c3ccccc3)[C@]3(O)C[C@H](OC(=O)[C@H](O)[C@@H](NC(=O)c4ccccc4)c4ccccc4)C(C)=C1C3(C)C)[C@]1(OC(C)=O)CO[C@@H]1C[C@@H]2O [Taxol]
thermal stability [1]: stable for at least about two hours | precipitation from the oil solution [2]: tends to precipitate from the oil solution | solubilization of taxol in squalane oil [3]: completely solubilized | activity against leukemia (leukemia): active | activity against colon tumor system (colon): active | activity against breast tumor system (breast): active | activity against melanoma (melanoma): active | activity against sarcomas (sarcomas): active | activity against Lewis lung tumor system (Lewis lung tumor): active | concentrations that stabilize microtubules, thus disrupting normal cell division (microtubules): 0.1 to 10.0 µg/mL | solubility in vehicle ([4]; ethanol:cremophor EL:isotonic saline (5:5:90)): ≤ 0.6 mg/mL | solubility in most oils ([4]; safflower, olive and soybean oil): 0.3 to 0.6 mg/mL | solubility in soybean oil ([4]; soybean oil): 0.3 mg/mL (≈ 351 µM) | solubility in triacetin ([4]; triacetin): 30 mg/mL (≈ 35100 µM) | degradation in the stomach [5]: degraded in the stomach
